What was measured:
Type in all cases: in vivo
[1] = system: maize glutamine synthetase; assay: Silencing of maize glutamine synthetase, qPCR of leaf samples and phenotype; conditions: dsRNA treated maize plants, 2-3 weeks after treatment
Procedure: The Zma-GS dsRNA molecule (SEQ ID NO 7:SEQ ID NO 8) used in this embodiment is a double stranded RNA version of SEQ ID NO 2. Methods for formulation of dsRNA and control solutions, plant growth conditions, and application of RNAi formulation were as described in the above example, with the exception that another control formulation was added with only Brassinosteroid at 0.1 micromolar.
Results were evaluated from leaf samples taken 2-3 weeks after treatment. Four plants were examined from each treatment group. […] Since glutamine synthetase is a natively expressed gene, qPCR analysis was performed to calculate silencing efficiency. qPCR was performed using the Applied Biosystems 7900HT Fast Real-Time PCR System. Silencing efficiency was calculated according to the publication Analysis of Relative Gene Expression Data Using Real-Time Quantitative PCR and the 2^−ΔΔCt Method. Methods (2001) 25:402-408.

[2] = system: NtPDS transcript; assay: Silencing of NtPDS transcript in tobacco, qPCR and phenotype; conditions: leaves of dsRNA treated tobacco plants
Procedure: The tobacco gene encoding phytoene desaturase was evaluated for silencing using dsRNA constructs in combination with BR. […] The NtPDS dsRNA molecule (SEQ ID NO 10:SEQ ID NO 11) used in this embodiment is a double stranded RNA version of SEQ ID NO 4.
Similar to Example 3, once germinated and grown for 3-4 weeks, three tobacco plants were chosen for treatment for either the dsRNA or the control formulation. Here, the control formulation contained BR and water alone. […] As in Examples 2 and 3, the silencing efficiencies were calculated and are shown in the table below, where dsPDS is dsRNA from NtPDS.

[3] = system: NtFtsH transcript; assay: Silencing of NtFtsH transcript in tobacco, qPCR and phenotype; conditions: leaves of dsRNA treated tobacco plants
Procedure: The tobacco gene encoding Filamentation temperature-sensitive H (NtFtsH) protease was evaluated for silencing using dsRNA constructs in combination with BR. […] The NtFtsH protease dsRNA molecule (SEQ ID NO 9:SEQ ID NO 10) used in this embodiment is a double stranded version of SEQ ID NO. 3.
Once germinated, tobacco plants were transplanted to new soil and grown for an additional 3-4 weeks. Three tobacco plants were chosen for treatment for either the dsRNA or the control formulation. The treatments were applied using methods similar to those described in Example 2. Here, the control formulation contained ZsGreen dsRNA. […] As in Example 2, the silencing efficiencies were calculated and are shown in the table below, where dsNtFtsH is dsRNA from NtFtsH protease and dsZsGreen is the dsRNA of ZsGreen: […]

dsGS: Zma-GS dsRNA (SEQ ID NO 7:SEQ ID NO 8), double stranded RNA version of SEQ ID NO 2
phenotype [1]: bleaching was observed

dsPDS: NtPDS dsRNA, double stranded RNA version of SEQ ID NO 4
phenotype [2]: bleaching phenotype was observed

B1: dsNtFtsH: NtFtsH protease dsRNA (SEQ ID NO 9:SEQ ID NO 10), double stranded version of SEQ ID NO. 3 (nucleic acid, listed as Nicotiana tabacum)
chain 1: CAAAUGGCAGUUGCACUUGGUGAAAGGGUUGCUGAGGAGGUUAUUUUUGGACAAGAUAACGUAACAACUGGGGCAUCUAACGAUUUCAUGCAAGUUUCACGAGUGGCAAGGCAGAUGGUUGAGAGAUUAGGGUUCAGCAAAAAGAUUGGACAAGUUGCCAUUGGAGGAGGUGGAGGAAAUCCUUUCCUAGGUCAACAGAUGUCAACCCAGAAAGACUACUCCAUGGCUACAGCCGAUGUGGUUGAUGCUGAAGUAAGGGAAUUGGUUGAAAGAGCAUAUGAAAGGGCAACAGAGAUUAUCACAACACACAUUGACAUCCUACACAAGCUUGCUCAGCUGUUGAUAGAGAAAGAAACUGUUGAUGGUGAAGAGUUCAUGAGCCUUUUCAUCGAUGG
chain 2: GUUUACCGUCAACGUGAACCACUUUCCCAACGACUCCUCCAAUAAAAACCUGUUCUAUUGCAUUGUUGACCCCGUAGAUUGCUAAAGUACGUUCAAAGUGCUCACCGUUCCGUCUACCAACUCUCUAAUCCCAAGUCGUUUUUCUAACCUGUUCAACGGUAACCUCCUCCACCUCCUUUAGGAAAGGAUCCAGUUGUCUACAGUUGGGUCUUUCUGAUGAGGUACCGAUGUCGGCUACACCAACUACGACUUCAUUCCCUUAACCAACUUUCUCGUAUACUUUCCCGUUGUCUCUAAUAGUGUUGUGUGUAACUGUAGGAUGUGUUCGAACGAGUCGACAACUAUCUCUUUCUUUGACAACUACCACUUCUCAAGUACUCGGAAAAGUAGCUACC
modifications: Sense strand of SEQIDNO3 (1)..(395); Complement of SEQIDNO9 (1)..(395)
phenotype [3]: bleaching phenotype was observed
